According to patent publication US11497751B2, “Modulators of Rho-associated protein kinase” (Redx Pharma PLC, priority 2018, dated 2022):
“And” between values parts separate entries of the source, which are not always exact repeats. Identical values can stand only once.

Biological target: T1, N-terminal 6His-tagged ROCK2 catalytic domain 11-552 (Homo sapiens, UniProt O75116)
T1 construct: N-terminal 6His-tagged ROCK2 catalytic domain 11-552; 6His (N); purchased Dundee University, UK; host or cells: baculovirus expression system
Test: ROCK2 binding activity: ROCK2 inhibition, ADP-Glo Kinase Assay
Assay type: biochemical
Details: 1.25 nM ROCK2, 100 μM long S6 peptide, 20 μM ATP; 1 hour pre-incubation; read-out: ADP-Glo kinase activity assay ROCK2 Category
Protocol: Assay for ROCK2 inhibition was performed using the protein construct N-terminal 6His-tagged ROCK2 catalytic domain 11-552 (Dundee University, UK). Protein was purified from a baculovirus expression system. Long S6 peptide ([…]) was used as substrate. Kinase reactions were carried out in 15 μl volume in a 96-well plate (black, half area) using 1.25 nM constitutively active ROCK2 kinase, 100 μM long S6 peptide, 20 μM ATP and test compound in DMSO (or DMSO only for controls). The final concentration of DMSO was 1%. Assay buffer was 50 mM HEPES pH 7.5 supplemented with 0.2 mM EDTA, 10 mM magnesium acetate, 0.01% Tween-20, 1 mM DTT and 0.01% BSA. Test compounds were pre-incubated with ROCK2 kinase for 1 hour before addition of ATP and long S6 peptide. After incubation for a further 1 hour, the amount of ADP produced was measured using ADP-Glo Kinase Assay (Promega) as per manufacturer's instructions. The luminescence was measured on a PHERAstar FS (BMG Labtech). The concentration of test compound required to inhibit ADP production by 50% (the IC50) was calculated using a four-parameter logistic function with software by Dotmatics.
The category “+” refers to compounds with a ROCK2 IC50 value of >10 μM. The category “++” refers to compounds with a ROCK2 IC50 value of 10 to 3 μM. The category “+++” refers to compounds with a ROCK2 IC50 value of 3 to 0.3 μM. The category “++++” refers to compounds with a ROCK2 IC50 value of <0.3 μM.

T1 sequence (O75116 11-552): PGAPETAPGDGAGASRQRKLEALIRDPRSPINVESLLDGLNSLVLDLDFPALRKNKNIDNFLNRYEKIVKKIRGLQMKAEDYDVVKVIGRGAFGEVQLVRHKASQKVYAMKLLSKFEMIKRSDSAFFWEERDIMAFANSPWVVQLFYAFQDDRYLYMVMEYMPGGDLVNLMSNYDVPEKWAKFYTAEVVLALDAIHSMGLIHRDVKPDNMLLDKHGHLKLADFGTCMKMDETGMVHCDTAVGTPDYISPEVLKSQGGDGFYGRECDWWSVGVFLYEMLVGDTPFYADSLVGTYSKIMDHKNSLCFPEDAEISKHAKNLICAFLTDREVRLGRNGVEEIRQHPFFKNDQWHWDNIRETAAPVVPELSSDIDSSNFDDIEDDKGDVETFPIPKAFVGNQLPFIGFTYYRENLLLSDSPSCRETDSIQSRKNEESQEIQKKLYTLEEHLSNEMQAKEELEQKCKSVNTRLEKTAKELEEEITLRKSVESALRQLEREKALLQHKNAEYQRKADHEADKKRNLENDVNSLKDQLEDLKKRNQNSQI

Compound	IC50
CC(C)NC(=O)COc1c(F)cc(-c2nnc(Nc3ccc4[nH]ncc4c3)[nH]2)cc1F [Example 36]	300 to 3000 nM
COc1ccc(-c2nc(Nc3ccc4[nH]ncc4c3Cl)n(C)n2)cc1 [Example 99]	< 300 nM
COc1cc(-c2nc(Nc3ccc4[nH]ncc4c3C3CC3)n(C)n2)ccc1C(=O)NC1CCN(CC(F)(F)F)C1 (stereo not shown) [Example 376]	< 300 nM
COc1cc(-c2nc(Nc3ccc4[nH]ncc4c3Cl)n(C)n2)ccc1OCC(=O)NC1CC(O)C1 (stereo not shown) [Example 214]	< 300 nM
CC[C@@H](C)[C@H](NC(=O)c1ccc(-c2nc(Nc3ccc4[nH]ncc4c3C3CC3)n(C)n2)cc1)C(=O)OC [Example 304]	< 300 nM
CC(C)NC(=O)COc1ccc(-c2nc(Nc3ccc4[nH]ncc4c3Cl)n(C)n2)cc1C(F)(F)F [Example 348]	< 300 nM
Cn1nc(C2=CCCC2)nc1Nc1ccc2[nH]ncc2c1Cl [Example 108]	300 to 3000 nM
COc1cc(-c2nc(Nc3ccc4[nH]ncc4c3Cl)n(C)n2)ccc1C(=O)NC1(C)CC1 [Example 264]	< 300 nM
CCNC(=O)c1ccc(-c2nc(Nc3ccc4[nH]ncc4c3Cl)n(C)n2)c(C)c1 [Example 262]	< 300 nM
CN1CC(NC(=O)c2ccc(-c3nc(Nc4ccc5[nH]ncc5c4Cl)n(C)n3)cc2Cl)C1 [Example 259]	3000 to 10000 nM
CNC(=O)c1ccc(-c2nc(Nc3ccc4[nH]ncc4c3Cl)n(C)n2)cn1 [Example 124]	< 300 nM
Cc1cc(-c2nc(Nc3ccc4[nH]ncc4c3C)n(CC(C)C)n2)ccc1C(=O)NCC(F)(F)F [Example 451]	< 300 nM
Cn1nc(-c2ccc(N)nc2)nc1Nc1ccc2[nH]ncc2c1Cl [Example 70]	300 to 3000 nM
CC(C)NC(=O)COc1cccc(-c2nnc(Nc3ccc4[nH]ncc4c3)[nH]2)c1 [Example 6]	< 300 nM
Cn1nc(-c2ccc(C3=NCC(C)(C)O3)cc2)nc1Nc1ccc2[nH]ncc2c1C1CC1 [Example 287]	< 300 nM
COc1ccccc1-c1nnc(Nc2ccc3[nH]ncc3c2)[nH]1 [Example 4]	> 10000 nM
Cn1ccc(-c2nc(Nc3ccc4[nH]ncc4c3Cl)n(C)n2)n1 [Example 119]	3000 to 10000 nM
Cn1nc(-c2cncc(O)c2)nc1Nc1ccc2[nH]ncc2c1Cl [Example 129]	300 to 3000 nM
Cn1nc(-c2ccc(C(=O)N3CCOCC3)cc2)nc1Nc1ccc2[nH]ncc2c1Cl [Example 61]	300 to 3000 nM
CCNC(=O)c1ccc(-c2nc(Nc3ccc4[nH]ncc4c3)n(C)n2)cc1Cl [Example 325]	300 to 3000 nM
CCNC(=O)c1ccc(-c2nc(Nc3ccc4[nH]ncc4c3Cl)n(C)n2)c(Cl)c1 [Example 265]	< 300 nM
CC(C)NC(=O)Cn1ccc(-c2nnc(Nc3ccc4[nH]ncc4c3)[nH]2)cc1=O [Example 28]	3000 to 10000 nM
CN1CCc2cc(-c3nc(Nc4ccc5[nH]ncc5c4Cl)n(C)n3)ccc2C1 [Example 367]	3000 to 10000 nM

Compound	IC50
CCc1c(Nc2nc(-c3ccc(C(=O)NCC(F)F)cc3)nn2C)ccc2[nH]ncc12 [Example 317]	< 300 nM
Cn1cc(NC(=O)c2ccc(-c3nc(Nc4ccc5[nH]ncc5c4C4CC4)n(C)n3)cc2)cn1 [Example 300]	< 300 nM
COc1cc(-c2nc(Nc3ccc4[nH]ncc4c3C)n(C(C)C)n2)ccc1OCC(=O)NC(C)C [Example 450]	< 300 nM
CC(C)NC(=O)COc1c(F)cc(-c2nc(Nc3ccc4[nH]ncc4c3)n(C)n2)cc1F [Example 415]	< 300 nM
Cn1nc(-c2ccc(C(=O)NCCC(F)(F)F)cc2)nc1Nc1ccc2[nH]ncc2c1C1CC1 [Example 285]	< 300 nM
Cc1c(Nc2nc(-c3ccc(C(=O)NCC(F)(F)F)c(F)c3F)nn2C)ccc2[nH]ncc12 [Example 419]	< 300 nM
CC(C)NC(=O)COc1ccc(-c2nc(Nc3ccc4[nH]ncc4c3)n(C)n2)cc1F [Example 473]	< 300 nM
COc1cc(-c2nc(Nc3ccc4[nH]ncc4c3Cl)n(C)n2)ccc1C(=O)NC(C)C [Example 193, 4-[5-[(4-chloro-1H-indazol-5-yl)amino]-1-methyl-1,2,4-triazol-3-yl]-N-isopropyl-2-methoxy-benzamide]	< 300 nM
Cn1nc(-c2ccc3c(c2)CCN(CC(F)(F)F)C3)nc1Nc1ccc2[nH]ncc2c1Cl [Example 372]	< 300 nM
Cn1nc(-c2ccc(C(=O)N[C@H]3C[C@@H]3F)cc2)nc1Nc1ccc2[nH]ncc2c1C1CC1 [Example 299]	< 300 nM
Cn1nc(-c2ccc(C(=O)NCC(F)(F)F)cc2)nc1Nc1ccc2[nH]nc(F)c2c1 [Example 428]	< 300 nM
COc1cc(-c2nc(Nc3ccc4[nH]ncc4c3Cl)n(C(C)C)n2)ccc1OCC(=O)NC(C)C [Example 145]	< 300 nM
Cn1nc(-c2cccc(N)c2)nc1Nc1ccc2[nH]ncc2c1Cl [Example 132]	300 to 3000 nM
Cn1nc(-c2ccc3c(c2)OCCC3O)nc1Nc1ccc2[nH]ncc2c1Cl (stereo not shown) [Example 234, 7-[5-[(4-chloro-1H-indazol-5-yl)amino]-1-methyl-1,2,4-triazol-3-yl]chroman-4-ol]	300 to 3000 nM
CCNC(=O)c1ccc(-c2nc(Nc3ccc4[nH]ncc4c3C3CC3)n(C)n2)cc1F [Example 387]	< 300 nM
COc1cc(-c2nc(Nc3ccc4[nH]ncc4c3C)n(C(C)C)n2)ccc1C(=O)NCC(F)(F)F [Example 449]	< 300 nM
COc1cc(-c2nc(Nc3ccc4[nH]ncc4c3C)n(C)n2)ccc1C(=O)NC1CC1 [Example 182]	< 300 nM
CNCCn1nc(-c2ccc(C(=O)NCC(F)(F)F)cc2)nc1Nc1ccc2[nH]ncc2c1C1CC1 [Example 443]	< 300 nM
CCNC(=O)c1cc(F)c(-c2nc(Nc3ccc4[nH]ncc4c3)n(C)n2)c(F)c1 [Example 413]	< 300 nM
CCNC(=O)c1ccc(-c2nc(Nc3ccc4[nH]ncc4c3)n(C)n2)cc1F [Example 326]	< 300 nM
Cn1nc(-c2ccc(C(=O)NCC(F)(F)F)nc2)nc1Nc1ccc2[nH]ncc2c1C1CC1 [Example 378]	< 300 nM
COc1cc(-c2nc(Nc3ccc4[nH]ncc4c3F)n(C)n2)ccc1C(=O)NCC(F)(F)F [Example 184]	300 to 3000 nM and < 300 nM
COCCn1nc(-c2ccc(OCC(=O)NC(C)C)c(OC)c2)nc1Nc1ccc2[nH]ncc2c1 [Example 447]	< 300 nM

Compound	IC50
Cn1nc(-c2ccc3c(c2)OCCC3=O)nc1Nc1ccc2[nH]ncc2c1Cl [Example 66]	< 300 nM
Cn1nc(-c2cn[nH]c2)nc1Nc1ccc2[nH]ncc2c1Cl [Example 111]	300 to 3000 nM
CC(C)NC(=O)COc1ccc(-c2nnc(Nc3ccc4[nH]ncc4c3Cl)[nH]2)cc1 [Example 30]	< 300 nM
Cn1nc(-c2ccc(C(=O)NC3(CO)CCCC3)cc2)nc1Nc1ccc2[nH]ncc2c1C1CC1 [Example 308]	< 300 nM
COc1cc(-c2nc(Nc3ccc4[nH]ncc4c3Cl)n(C)n2)ccc1C(=O)NC1CCS(=O)(=O)C1 (stereo not shown) [Example 200]	< 300 nM
Cc1c(Nc2nc(-c3ccc(C(=O)NCC(F)(F)F)nc3)nn2C)ccc2[nH]ncc12 [Example 418]	300 to 3000 nM
CC(C)NC(=O)COc1ccc(-c2nnc(Nc3ccc4[nH]ncc4c3)[nH]2)cn1 [Example 29]	300 to 3000 nM
CC(C)NC(=O)COc1c(F)cc(-c2nc(Nc3ccc4[nH]ncc4c3Cl)n(C)n2)cc1F [Example 368]	< 300 nM
COc1cc(-c2nc(Nc3cc(Cl)c4[nH]ncc4c3)n(C)n2)ccc1C(=O)NC(C)C [Example 271]	< 300 nM
COc1ccc(-c2nc(Nc3ccc4[nH]ncc4c3Cl)n(C)n2)cc1OC [Example 77]	< 300 nM
Cc1cc(-c2nc(Nc3ccc4[nH]ncc4c3Cl)n(C)n2)n(C)n1 [Example 107]	300 to 3000 nM
O=C(NCC(F)(F)F)c1ccc(-c2nc(Nc3ccc4[nH]ncc4c3C3CC3)n(C3CCNCC3)n2)cc1 [Example 442]	< 300 nM
CC1CC1NC(=O)c1ccc(-c2nc(Nc3ccc4[nH]ncc4c3C3CC3)n(C)n2)cc1 (stereo not shown) [Example 312]	< 300 nM
CC(C)c1c(Nc2nc(-c3ccc(C(=O)NCC(F)(F)F)cc3)nn2C)ccc2[nH]ncc12 [Example 425]	300 to 3000 nM
Cn1nc(-c2ccc(C(=O)NCC(C)(C)N)cc2)nc1Nc1ccc2[nH]ncc2c1C1CC1 [Example 291]	3000 to 10000 nM
Cc1n[nH]c2ccc(Nc3nc(-c4ccc(C(=O)NCC(F)(F)F)cc4)nn3C)cc12 [Example 427]	< 300 nM
Cn1nc(-c2ccc(CNS(C)(=O)=O)cc2)nc1Nc1ccc2[nH]ncc2c1C1CC1 [Example 385]	< 300 nM
COc1cc(C(=O)NCC(F)(F)F)ccc1-c1nc(Nc2ccc3[nH]ncc3c2C2CC2)n(C)n1 [Example 278]	< 300 nM
CCNC(=O)c1ccc(-c2nc(Nc3ccc4[nH]ncc4c3C3CC3)n(C)n2)c(OC)c1 [Example 279]	< 300 nM
Cn1nc(-c2ccc(OCCn3ccc(=O)cc3)cc2)nc1Nc1ccc2[nH]ncc2c1Cl [Example 122]	< 300 nM
Cn1nc(-c2ccc(C(=O)NC3CC3)c(F)c2)nc1Nc1ccc2[nH]ncc2c1C1CC1 [Example 380]	< 300 nM
